Assay results from patent US20240309015A1, “Methods for the Treatment of Fibrotic Disease” (SHY Therapeutics, LLC, priority 2021, published 2024).

Experiments:
Rho-A = test: Ras GTP Binding Domain Inhibition Assay, Rho-A; details: at 20 μM
Outline: (§1)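 Read-out is fluorescence of Cy3- or Cy5-GTP (100 nM, 45 min, room temperature) still bound after three washes. Beforehand, His-tagged protein on nickel wells was exposed to compound (20 μM, or a dilution series for IC50) for 3 h, with or without Sos in the last hour.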

Smad2/3 phosphorylation = test: Phospho-Smad2/3 Inhibition Assay in PANC-1; type: cell-based; details: Homo sapiens, western blot
Outline: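 Serum-starved cells (0.5% FBS overnight) pretreated 3 h at 37 °C with compound at 10 μM or serial dilutions for IC50, in 0.3% DMSO. TGF-b1 10 ng/ml stimulation: 1 h for Panc-1 (human), 20 min for C2C12 (mouse). Phospho-Smad2 (Ser465/467) and phospho-Smad3 (Ser423/425) measured by western blot of lysates.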

MAPK p38 = MAPK p38 Activation Assay in PANC-1; type: cell-based, human; design: key: Y = yes; N = No; details: at 10 μM
Description: Cell lines: Human tumor-derived pancreatic cancer cell line Panc-1 and mouse muscle myoblast C2C12 were purchased from American Type Culture Collection and grown in complete DMEM-High Glucose, supplemented with penicillin (100 U/mL), streptomycin (100 μg/mL), and 10% heat-inactivated FBS at 37° C. in a humidified incubator with 5% C02.
Method: Cells were plated at 350000 cells/well density in a 12-well plate, allowed 3 hours to adhere to the plate, then starved in the appropriate medium in the presence of 0.5% FBS overnight. The small molecules to be tested were added to the cells in the final concentration of 10 μM in the presence of 0.3% DMSO for 3 hours incubation at 37° C. For IC50 value determination, serial dilutions of compounds were added to cells under the same conditions. […] Protein concentration was assessed by BCA protein assay (Thermo Scientific). Phosphorylation level of MAPK p38 was determined by western blot.
Western blot protocol: Equal amounts of protein (15-50 μg) were separated by SDS-PAGE and transferred to nitrocellulose membranes (Invitrogen by Thermo Fisher Scientific). […] Membranes were blocked with 10% milk and phosphorylation levels of Smad2/Smad3 were assessed by incubating overnight at 4° C. with the following antibody: Phospho-p38 MAPK (Thr180/Tyr182), from Cell Signaling Technology. […]

KRas G12C mutant = test: Ras GTP Binding Domain Inhibition Assay, KRas G12C mutant; details: at 20 μM
Outline: as §1

CO[C@H]1CC[C@@H](Nc2nc(-c3nccn3C)nc3sc(-c4ccn(C)n4)c(-c4ccccc4)c23)C1 (racemic) [Compound 5, rac-N-((1R,3S)-3-Methoxycyclopentyl)-2-(1-methyl-1H-imidazol-2-yl)-6-(1-methyl-1H-pyrazol-3-yl)-5-phenylthieno[2,3-d]pyrimidin-4-amine]
Rho-A + SOS: % inh. (Rho-A; with SOS): D (D = 76-100% inhibition)
Rho-A: % inh. (Rho-A; without SOS): C (C = 46-75% inhibition)
inhibition at 10 µM (Smad2/3 phosphorylation; 10 μM compound, 3 h, TGF-b1 stimulated PANC-1, read-out: % inh of Smad2/3 phosphorylation in PANC-1): 76 to 100%
IC50 (Smad2/3 phosphorylation; PANC-1, TGF-b1 stimulated): 5 to 10 µM
Activation of MAPK p38 in PANC-1 (MAPK p38): Y
KRas G12C mutant + SOS: % inh. (KRas G12C mutant; with SOS): D (D = 76-100% inhibition)
KRas G12C mutant: % inh. (KRas G12C mutant; without SOS): B (B = 26-45% inhibition)
